Drawing on US20090312288A1 (TAKEDA PHARMACEUTICAL COMPANY LIMITED, priority 2008, published 2009), this text covers IC50 for eleven compounds.

One may read the IC50 as the concentration that gives 50% inhibition.

The target in the experiment is Aurora B/INCENP (Homo sapiens, UniProt Q96GD4). Kind of experiment: Determination of inhibition of AIK: Aurora B/INCENP direct fluorescence polarization (IMAP) assay. In kind it is biochemical. As to conditions: 10 uM ATP, 0.8 nM Aurora B/INCENP; values given as bins; read-out: IC50 of Exemplified Compounds Against AIK B. (In general: Fluorescence polarisation rises when a labelled molecule tumbles more slowly, as on binding a larger partner.)
Chain of Aurora B/INCENP (Q96GD4 whole entry): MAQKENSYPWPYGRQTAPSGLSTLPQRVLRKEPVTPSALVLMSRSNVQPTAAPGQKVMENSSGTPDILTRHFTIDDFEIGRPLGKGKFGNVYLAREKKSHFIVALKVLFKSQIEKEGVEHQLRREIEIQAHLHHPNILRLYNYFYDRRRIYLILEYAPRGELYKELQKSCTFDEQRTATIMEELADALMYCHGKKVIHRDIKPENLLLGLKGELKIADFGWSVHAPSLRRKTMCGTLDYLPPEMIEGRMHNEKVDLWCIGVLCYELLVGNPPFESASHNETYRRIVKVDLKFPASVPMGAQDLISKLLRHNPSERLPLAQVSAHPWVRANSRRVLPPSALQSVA
Chain of Aurora B/INCENP (Q9NQS7 whole entry partner): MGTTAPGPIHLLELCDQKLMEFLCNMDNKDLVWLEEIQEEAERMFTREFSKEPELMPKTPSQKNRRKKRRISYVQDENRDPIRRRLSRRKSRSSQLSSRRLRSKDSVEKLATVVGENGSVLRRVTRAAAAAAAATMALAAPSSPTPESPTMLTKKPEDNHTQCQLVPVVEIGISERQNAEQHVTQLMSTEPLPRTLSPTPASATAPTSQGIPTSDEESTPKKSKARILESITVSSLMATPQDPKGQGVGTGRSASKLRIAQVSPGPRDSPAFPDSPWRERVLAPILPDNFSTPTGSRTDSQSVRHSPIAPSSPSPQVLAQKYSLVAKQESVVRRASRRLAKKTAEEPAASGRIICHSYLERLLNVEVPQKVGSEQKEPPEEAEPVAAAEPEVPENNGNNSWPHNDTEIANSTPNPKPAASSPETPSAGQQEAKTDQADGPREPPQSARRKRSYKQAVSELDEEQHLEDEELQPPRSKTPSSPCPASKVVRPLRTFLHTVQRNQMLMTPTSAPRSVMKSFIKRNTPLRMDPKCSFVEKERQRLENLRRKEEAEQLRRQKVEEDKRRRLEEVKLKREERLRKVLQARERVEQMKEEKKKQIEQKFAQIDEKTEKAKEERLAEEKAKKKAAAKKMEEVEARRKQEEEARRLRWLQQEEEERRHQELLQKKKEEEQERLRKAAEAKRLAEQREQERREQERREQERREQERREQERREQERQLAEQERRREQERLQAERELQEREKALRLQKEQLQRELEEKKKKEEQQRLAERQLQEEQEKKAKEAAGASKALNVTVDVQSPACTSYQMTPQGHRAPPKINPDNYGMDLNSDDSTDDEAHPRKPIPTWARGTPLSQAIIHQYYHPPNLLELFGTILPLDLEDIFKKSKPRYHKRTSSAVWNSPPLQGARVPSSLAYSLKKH
With `CCN(CC)CCCOc1ccc(-c2cccc(S(=O)(=O)CC)c2)c2c1[nH]c1ncc(C)cc12` [Compound 425, N,N-diethyl-3-(5-(3-(ethylsulfonyl)phenyl)-3-methyl-9H-pyrido[2,3-b]indol-8-yloxy)propan-1-amine], the IC50 fell in the range of 8.6 to 13 nM.
The figure for `CCS(=O)(=O)c1cccc(-c2ccc(OCCCOC)c3[nH]c4ncc(C)cc4c23)c1` [Compound 427, 5-(3-(ethylsulfonyl)phenyl)-8-(3-methoxypropoxy)-3-methyl-9H-pyrido[2,3-b]indole] is 5.6 to 8.5 nM; for `CCS(=O)(=O)c1cccc(-c2ccc(OCc3cccc(F)n3)c3[nH]c4ncc(C)cc4c23)c1` [Compound 433, 5-(3-(ethylsulfonyl)phenyl)-8-((6-fluoropyridin-2-yl)methoxy)-3-methyl-9H-pyrido[2,3-b]indole] it is < 4 nM; for `CCS(=O)(=O)c1cccc(-c2ccc(OCCCN3CCOCC3)c3[nH]c4ncc(C)cc4c23)c1` [Compound 440, 4-(3-(5-(3-(ethylsulfonyl)phenyl)-3-methyl-9H-pyrido[2,3-b]indol-8-yloxy)propyl)morpholine] it is > 13 nM.
In the case of `Cc1cnc2[nH]c3c(OCCCN4CCC(OP(=O)(O)O)CC4)ccc(-c4cccc(S(=O)(=O)C5CC5)c4)c3c2c1` [Compound 444, 1-(3-(5-(3-(cyclopropylsulfonyl)phenyl)-3-methyl-9H-pyrido[2,3-b]indol-8-yloxy)propyl)piperidin-4-yl dihydrogen phosphate] it was < 4 nM; in that of `CCS(=O)(=O)c1cccc(-c2ccc(OCCCN3CCC(COP(=O)(O)O)CC3)c3[nH]c4ncc(C)cc4c23)c1` [Compound 449, (1-(3-(5-(3-(ethylsulfonyl)phenyl)-3-methyl-9H-pyrido[2,3-b]indol-8-yloxy)propyl)piperidin-4-yl)methyl dihydrogen phosphate], < 4 nM.
The figure for `CCS(=O)(=O)c1cccc(-c2cc(C(=O)NC3CCNCC3)c(C)c3[nH]c4ncc(C)cc4c23)c1` [Compound 451, 5-(3-(ethylsulfonyl)phenyl)-3,8-dimethyl-N-(piperidin-4-yl)-9H-pyrido[2,3-b]indole-7-carboxamide] is 8.6 to 13 nM; for `CCS(=O)(=O)c1cccc(-c2cc(C(=O)N3CCC(CCO)CC3)c(C)c3[nH]c4ncc(C)cc4c23)c1` [Compound 454, (5-(3-(ethylsulfonyl)phenyl)-3,8-dimethyl-9H-pyrido[2,3-b]indol-7-yl)(4-(2-hydroxyethyl)piperidin-1-yl)methanone] it is 8.6 to 13 nM; for `CCS(=O)(=O)c1cccc(-c2cc(C(=O)NC3CCN(CCO)CC3)c(C)c3[nH]c4ncc(C)cc4c23)c1` [Compound 456, 5-(3-(ethylsulfonyl)phenyl)-N-(1-(2-hydroxyethyl)piperidin-4-yl)-3,8-dimethyl-9H-pyrido[2,3-b]indole-7-carboxamide] it is 5.6 to 8.5 nM.
Regarding `CCS(=O)(=O)c1cccc(-c2c(Cl)cnc3[nH]c4c(OC)cccc4c23)c1` [Compound 464, 3-chloro-4-(3-(ethylsulfonyl)phenyl)-8-methoxy-9H-pyrido[2,3-b]indole], the IC50 fell in the range of 5.6 to 8.5 nM.
Turning to “(3-chloro-5-(3-(ethylsulfonyl)phenyl)-9H-pyrido[2,3-b]indol-8-ol [Compound 219]”, the concentration for half-maximal inhibition (IC50) is < 4 nM.
